Biological target: T1, CkGE15A (Caldicellulosiruptor acetigenus, UniProt E4S6E9)
T1 construct: gene Calkr_2245; CE15 glucuronoyl esterase domain only, cut from the 191-kDa multidomain protein (CBM22-CBM22-GH10-CBM9-CBM9-CBM9-CE15-cadherin-SLH-SLH); modified pET-28a with TEV site, E. coli BL21, Ni IMAC
T1 sequence (E4S6E9 1270-1690 limits assumed): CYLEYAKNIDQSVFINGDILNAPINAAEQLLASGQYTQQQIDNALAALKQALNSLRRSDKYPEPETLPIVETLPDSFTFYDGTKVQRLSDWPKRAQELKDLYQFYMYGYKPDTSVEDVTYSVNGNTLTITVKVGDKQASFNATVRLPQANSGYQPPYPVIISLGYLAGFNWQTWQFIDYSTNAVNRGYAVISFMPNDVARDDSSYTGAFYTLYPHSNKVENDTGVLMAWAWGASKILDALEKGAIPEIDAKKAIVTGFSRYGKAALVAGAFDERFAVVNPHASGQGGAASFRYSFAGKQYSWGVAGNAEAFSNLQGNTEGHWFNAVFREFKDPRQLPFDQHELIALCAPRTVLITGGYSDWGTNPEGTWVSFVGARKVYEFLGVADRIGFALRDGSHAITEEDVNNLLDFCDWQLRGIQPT
Assay: continuous coupled assay of uronic acid release (K-URONIC kit, NADH at […] nm)
Type: biochemical
Conditions: 22 °C; pH 7.5; printed as 'Cannot be saturated up to 40 mM'

Km | SMILES
> 40 mM | C=CCOC(=O)[C@H]1OC(O)[C@H](O)[C@@H](O)[C@@H]1O (stereo partly drawn) [AllGlcA, Allyl-D-glucuronoate]
> 40 mM | COC(=O)[C@H]1OC(O)[C@H](O)[C@@H](O)[C@@H]1O (stereo partly drawn) [MeGlcA, Methyl-D-glucuronoate]

From publication PMC7151638, “Investigation of a thermostable multi-domain xylanase-glucuronoyl esterase enzyme from Caldicellulosiruptor kristjanssonii incorporating multiple carbohydrate-binding modules” (Biotechnology for Biofuels, 2020)
